Patent US20240425464A1, “Substituted Monohydrazides as Potent Antifungal Agents” (University of Kentucky Research Foundation, priority 2023, published 2024)
≈ marks a conversion by molar mass, not a printed value. Like-named read-outs stand apart in the source and are kept apart here.

Columns and labels:
Type in all cases: cell-based, Candida albicans
[1] = tested on: C. albicans ATCC 10231 (strain A); test: MIC determination by in vitro antifungal assay (CLSI broth dilution); conditions: strain A = C. albicans ATCC 10231, no visible growth, 48 h at 35° C.
Protocol: (§1) 10 mg/mL stock solutions of compounds 1a-9j were prepared in dimethyl sulfoxide (DMSO) and were stored at −20° C. in the dark. The antifungal agent amphotericin B (AmB) was purchased from VWR (Radnor PA, USA). AmB was dissolved in DMSO at a final concentration of 5 mg/mL and was stored at −20° C., protected from light. Candida albicans American Type Culture Collection (ATCC) 10231 (strain A), C. albicans ATCC 64124 (B), and C. albicans ATCC MYA-2876 (C) were obtained from Utah State University. C. albicans ATCC 90819 (D), C. albicans ATCC MYA-2310 (E), C. albicans ATCC MYA-1237 (F), C. albicans ATCC MYA-1003 (G), Candida glabrata ATCC 2001 (H), Candida krusei ATCC 6258 (I), Candida parapsilosis ATCC 22019 (J), Cryptococcus neoformans ATCC MYA-895 (M), Aspergillus terreus ATCC MYA-3633 (N), and Aspergillus flavus ATCC MYA-3631 (0) were obtained from the American Type Culture Collection (ATCC; Manassas, VA, USA). Aspergillus nidulans ATCC 38163 (P) was obtained from University of Kentucky. Clinically derived Aspergillus fumigatus NRRL 163 (Q), A. fumigatus NRRL 5109 (R), and A. fumigatus NRRL 6113 (S) were obtained from Northern Regional Research Laboratory (NRRL). Candida auris 384 (K), C. auris 390 (L), and fungal strains 381-400 (including 10 C. auris (AR Bank #381-390), 3 Candida duobushaemulonii (AR Bank #391, AR Bank #392, and AR Bank #394), 2 Candida haemulonii (AR Bank #393 and AR Bank #395), 1 Kodameae ohmeri (AR Bank #396), 1 C. krusei (AR Bank #397), 1 Candida lusitaniae (AR Bank #398), and 2 Saccharomyces cerevisiae strains (AR Bank #399 and AR Bank #400)) were part of a larger fungal library from the AR Bank maintained by the Centers for Disease Control and Prevention (CDC; Atlanta, GA, USA). Filamentous fungi and yeasts were cultivated at 35° C. in RPMI 1640 medium (with L-glutamine, without sodium bicarbonate, Sigma-Aldrich, St. Louis, MO) buffered to a pH of 7.0 with 0.165 M morpholinepropanesulfonic acid (MOPS) buffer (Sigma-Aldrich). For cytotoxicity assays, HepG2 and the mouse macrophage cell line J774A.1 were obtained from University of Kentucky. The human embryonic kidney cell line, HEK-293, was bought from the ATCC. Mammalian cells were grown in Dulbecco's Modified Eagle's Medium (DMEM) (from VWR) with 10% fetal bovine serum (FBS) (from VWR) and 1% Pen/Strep (from ATCC). Cell lines were cultured at 37° C. with 5% CO2 and passaged by trypsinization with 0.05% trypsin: 0.53 mM EDTA (from Sigma-Aldrich).
(§2) The MIC values of compounds 1a-9j against yeast cells (strains A-P and 381-400) were determined in 96-well plates as described in the CLSI documents M27-A3 and M38-A2 with minor modifications.^2 A single colony of freshly prepared yeast cells was used to inoculate 5 mL of yeast extract peptone dextrose (YPD) broth prior to incubation overnight with shaking at 200 rpm at 35° C. From the actively growing yeast culture, 100 µL were then transferred to 900 μL of RPMI 1640 medium and re-adjusted to achieve OD600 of 0.12 (˜1×10^6 CFU/mL). The cell suspension was further diluted to achieve 1:100 in RPMI 1640 medium. 100 μL of cells were added to the wells of a 96-well microtiter plates that contained 100 µL of the compound solution to obtain concentrations of 0.06-31.3 μg/mL of compounds 1a-9j or AmB prior to incubation for 48 h at 35° C. […]

[2] = tested on: C. albicans ATCC 90819 (D); test: MIC determination by in vitro antifungal assay
Protocol: as §1, §2

[3] = tested on: C. albicans ATCC MYA-2876 (C); test: MIC determination by in vitro antifungal assay; conditions: strain C = C. albicans ATCC MYA-2876(S)
Protocol: as §1, §2

[4] = tested on: C. albicans ATCC MYA-2310 (E); test: MIC determination by in vitro antifungal assay; conditions: strain E = C. albicans ATCC MYA-2310
Protocol: as §1, §2

[5] = tested on: C. albicans ATCC MYA-1237 (F); test: MIC determination by in vitro antifungal assay; conditions: strain F = C. albicans ATCC MYA-1237(R)
Protocol: as §1, §2

[6] = tested on: C. albicans ATCC MYA-1003 (G); test: MIC determination by in vitro antifungal assay; conditions: strain G = C. albicans ATCC MYA-1063(R) (footnote), MYA-1003 in text
Protocol: as §1, §2

[7] = tested on: C. albicans ATCC 64124 (B); test: MIC determination by in vitro antifungal assay
Protocol: as §1, §2

[8] = Candida albicans, ATCC10231, 48 h, read-out: MIC
[9] = Candida albicans, ATCC90819, strain D = C. albicans ATCC 90819(R), read-out: MIC
[10] = Candida albicans, read-out: MIC
[11] = Candida albicans, ATCC64124, strain B = C. albicans ATCC 64124, read-out: MIC
[12] = strain D = C. albicans ATCC 90819(R)
[13] = strain B = C. albicans ATCC 64124

| Structure (SMILES) | MIC [1, 8] [µg/mL] | MIC [2, 9] [µg/mL] | MIC [3, 10] [µg/mL] | MIC [4, 10] [µg/mL] | MIC [5, 10] [µg/mL] | MIC [6, 10] [µg/mL] | MIC [7, 11] [µg/mL] | MIC [1] [μg/mL^−1] | MIC [2, 12] [μg/mL^−1] | MIC [3] [μg/mL^−1] | MIC [4] [μg/mL^−1] | MIC [5] [μg/mL^−1] | MIC [6] [μg/mL^−1] | MIC [7, 13] [μg/mL^−1] |
| --- | --- | --- | --- | --- | --- | --- | --- | --- | --- | --- | --- | --- | --- | --- |
| O=C(NNc1ccc(F)cc1F)c1ccc(Br)cn1 [Compound 4g] | 3.9 (≈ 11.9 µM) | 3.9 (≈ 11.9 µM) | 0.98 (≈ 2.99 µM) | > 31.3 | 1.95 (≈ 5.94 µM) | 15.6 (≈ 47.5 µM) | 15.6 (≈ 47.5 µM) |  |  |  |  |  |  |  |
| O=C(NNc1cccc(F)c1)c1ccccn1 [Compound 2a] |  |  |  |  |  |  |  | ≤0.06 | 0.49 | 0.98 | 1.95 | 0.98 | 0.98 | 0.98 |
| O=C(NNc1ccc(F)cc1)c1ccccn1 [Compound 2d] | 0.12 (≈ 0.519 µM) | 0.98 (≈ 4.24 µM) | 3.9 (≈ 16.9 µM) | 1.95 (≈ 8.43 µM) | 1.95 (≈ 8.43 µM) | 0.49 (≈ 2.12 µM) | 0.98 (≈ 4.24 µM) |  |  |  |  |  |  |  |
| O=C(NNc1ccc(F)cc1F)c1ccc(F)cn1 [Compound 3g] | 0.49 (≈ 1.83 µM) | 1.95 (≈ 7.3 µM) | 1.95 (≈ 7.3 µM) | 1.95 (≈ 7.3 µM) | 1.95 (≈ 7.3 µM) | 0.98 (≈ 3.67 µM) | 1.95 (≈ 7.3 µM) |  |  |  |  |  |  |  |
| COc1ccc(NNC(=O)c2ccc(Br)cn2)cc1 [Compound 4f] | 3.9 (≈ 12.1 µM) | 3.9 (≈ 12.1 µM) | 1.95 (≈ 6.05 µM) | 3.9 (≈ 12.1 µM) | 0.98 (≈ 3.04 µM) | 1.95 (≈ 6.05 µM) | 3.9 (≈ 12.1 µM) |  |  |  |  |  |  |  |
| O=C(NNc1ccc(F)cc1F)c1cnccn1 [Compound 9g] | 0.24 (≈ 0.959 µM) | 0.98 (≈ 3.92 µM) | 0.98 (≈ 3.92 µM) | 3.9 (≈ 15.6 µM) | 0.49 (≈ 1.96 µM) | 0.49 (≈ 1.96 µM) | 0.98 (≈ 3.92 µM) |  |  |  |  |  |  |  |
| O=C(NNc1cccc(F)c1)c1ccc(F)cc1F [Compound 1a] |  |  |  |  |  |  |  | 0.24 | 7.8 | 3.9 | 3.9 | 0.98 | 1.95 | 1.95 |
| COc1ccc(NNC(=O)c2cccc(F)n2)cc1 [Compound 5f] | 0.24 (≈ 0.919 µM) | 1.95 (≈ 7.46 µM) | 0.98 (≈ 3.75 µM) | 0.98 (≈ 3.75 µM) | 0.98 (≈ 3.75 µM) | 0.98 (≈ 3.75 µM) | 1.95 (≈ 7.46 µM) |  |  |  |  |  |  |  |
| COc1cccc(NNC(=O)c2ccccn2)c1 [Compound 2c] |  |  |  |  |  |  |  | 0.24 | 1.95 | 0.98 | 1.95 | 1.95 | 0.98 | 0.98 |
| O=C(NNc1cc(F)ccc1F)c1ccccn1 [Compound 2h] | 0.12 (≈ 0.482 µM) | 0.98 (≈ 3.93 µM) | 3.9 (≈ 15.6 µM) | 1.95 (≈ 7.82 µM) | 1.95 (≈ 7.82 µM) | 0.98 (≈ 3.93 µM) | 1.95 (≈ 7.82 µM) |  |  |  |  |  |  |  |
| O=C(NNc1cc(F)cc(F)c1)c1ccc(F)cc1F [Compound 1i] | 3.9 (≈ 13.7 µM) | 15.6 (≈ 54.9 µM) | 15.6 (≈ 54.9 µM) | 15.6 (≈ 54.9 µM) | 7.8 (≈ 27.4 µM) | 15.6 (≈ 54.9 µM) | 15.6 (≈ 54.9 µM) |  |  |  |  |  |  |  |
| O=C(NNc1cc(F)cc(F)c1)c1ccccn1 [Compound 2i] | ≤ 0.06 | 0.98 (≈ 3.93 µM) | 0.98 (≈ 3.93 µM) | 0.98 (≈ 3.93 µM) | 1.95 (≈ 7.82 µM) | 0.49 (≈ 1.97 µM) | 0.98 (≈ 3.93 µM) |  |  |  |  |  |  |  |
| O=C(NNc1ccc(Cl)cc1)c1ccccn1 [Compound 2e] |  |  |  |  |  |  |  | 0.12 | 0.24 | 1.95 | 0.98 | 0.98 | 0.98 | 0.98 |
| COc1cccc(NNC(=O)c2ccc(F)cc2F)c1 [Compound 1c] | 0.98 (≈ 3.52 µM) | 3.9 (≈ 14 µM) | 3.9 (≈ 14 µM) | 3.9 (≈ 14 µM) | 3.9 (≈ 14 µM) | 1.95 (≈ 7.01 µM) | 1.95 (≈ 7.01 µM) |  |  |  |  |  |  |  |
| O=C(NNc1cccc(Cl)c1)c1ccccn1 [Compound 2b] |  |  |  |  |  |  |  | 0.12 | 0.49 | 0.98 | 0.98 | 0.98 | 0.49 | 0.98 |
| O=C(NNc1cc(F)ccc1F)c1cnccn1 [Compound 9h] | 0.24 (≈ 0.959 µM) | 3.9 (≈ 15.6 µM) | 3.9 (≈ 15.6 µM) | > 31.3 | 3.9 (≈ 15.6 µM) | 1.95 (≈ 7.79 µM) | 7.8 (≈ 31.2 µM) |  |  |  |  |  |  |  |
| O=C(NNc1ccc(Cl)cc1)c1ccc(F)cc1F [Compound 1e] |  |  |  |  |  |  |  | 1.95 | 3.9 | 15.6 | 7.8 | 1.95 | 7.8 | 15.6 |
